Where only a bound is given, the exact number is not on record here.

The subject of one assay is NL-RLuc virus (recombinant HIV NL4-3 proviral clone with Renilla Luciferase) in MT-2 cells. The assay is described as follows: Inhibition of HIV Replication (NL-RLuc luciferase reporter virus, MT-2 cells). Format: cell-based. The conditions noted are these: MT2, 120 h, read-out: Activity. An excerpt: Inhibition of HIV Replication:
A recombinant NL-RLuc proviral clone was constructed in which a section of the nef gene from NL4-3 was replaced with the Renilla Luciferase gene. This virus is fully infectious and can undergo multiple cycles of replication in cell culture. In addition, the luciferous reporter provides a simple and easy method for quantitating the extent of virus growth and consequently, the antiviral activity of test compounds. The plasmid pNLRLuc contains the proviral NL-Rluc DNA cloned into pUC 18 at the PvuII site. The NL-RLuc virus was prepared by transfection of 293T cells with the plasmid pNLRLuc. Transfections were performed using the LipofectAMINE PLUS kit from Invitrogen (Carlsbad, Calif.) according to the manufacturer and the virus generated was titered in MT-2 cells. For susceptibility analyses, the titrated virus was used to infect MT-2 cells in the presence of compound, and after 5 days of incubation, cells were processed and quantitated for virus growth by the amount of expressed luciferase. Assay media was RPMI 1640 supplemented with 10% heat inactivated fetal bovine serum (FBS), 100 units/ml penicillin G/100 units/ml streptomycin, 10 mM HEPES buffer pH 7.55 and 2 mM L-glutamine. The results from at least 2 experiments were used to calculate the EC50 values. Luciferase was quantitated using the Dual Luciferase kit from Promega (Madison, Wis.). Susceptibility of viruses to compounds was determined by incubation in the presence of serial dilutions of the compound. The 50% effective concentration (EC50) was calculated by using the exponential form of the median effect equation where (Fa)=1/[1+(ED50/drug conc.)^m](Johnson V A, Byington R T. Infectivity Assay. In Techniques in HIV Research. ed. Aldovini A, Walker B D. 71-76. New York: Stockton Press. 1990). Activity equal to A refers to a compound having an EC50≤100 nM, while B and C denote compounds having an EC50 between 100 nM and 1 uM (B) or >1 uM (C).
(In general: A reporter such as luciferase makes a cellular process visible.)
As to `Cc1nc(C)c([C@H](OC(C)(C)C)C(=O)O)c(N2CCC(C)(C)CC2)c1-c1ccc(CN(Cc2ccc(F)cc2)C(=O)N2CCCC2)cc1` [Example 35, (S)-2-(tert-butoxy)-2-(4-(4,4-dimethylpiperidin-1-yl)-5-(4-((N-(4-fluorobenzyl)pyrrolidine-1-carboxamido)methyl)phenyl)-2,6-dimethylpyridin-3-yl)acetic acid], the EC50 was under 0.1 µM.
Still for that read-out and setting: for `Cc1nc(C)c([C@H](OC(C)(C)C)C(=O)O)c(N2CCC(C)(C)CC2)c1-c1ccc(CN(Cc2ccc(F)cc2)C(=O)C(C)C)cc1` [Example 23, (S)-2-(tert-butoxy)-2-(4-(4,4-dimethylpiperidin-1-yl)-5-(4-((N-(4-fluorobenzyl)isobutyramido)methyl)phenyl)-2,6-dimethylpyridin-3-yl)acetic acid] the value was under 0.1 µM.
For `CC(=O)N(Cc1ccc(F)cc1)Cc1ccc(-c2c(C)nc(C)c([C@H](OC(C)(C)C)C(=O)O)c2N2CCC(C)(C)CC2)cc1` [Example 24, (S)-2-(tert-butoxy)-2-(4-(4,4-dimethylpiperidin-1-yl)-5-(4-((N-(4-fluorobenzyl)acetamido)methyl)phenyl)-2,6-dimethylpyridin-3-yl)acetic acid], the EC50 was under 0.1 µM.
The same measure, in the same setting: for `Cc1nc(C)c([C@H](OC(C)(C)C)C(=O)O)c(N2CCC(C)(C)CC2)c1-c1ccc(CNCC2CCCCC2)cc1` [Example 17, (S)-2-(tert-butoxy)-2-(5-(4-(((cyclohexylmethyl)amino)methyl)phenyl)-4-(4,4-dimethylpiperidin-1-yl)-2,6-dimethylpyridin-3-yl)acetic acid] the value was 0.1 to 1 µM.
Regarding `Cc1ccc(CNCc2ccc(-c3c(C)nc(C)c([C@H](OC(C)(C)C)C(=O)O)c3N3CCC(C)(C)CC3)cc2)cc1` [Example 16, (S)-2-(tert-butoxy)-2-(4-(4,4-dimethylpiperidin-1-yl)-2,6-dimethyl-5-(4-(((4-methylbenzyl)amino)methyl)phenyl)pyridin-3-yl)acetic acid], the EC50 is under 0.1 µM.
The same measure, in the same setting: next, `Cc1nc(C)c([C@H](OC(C)(C)C)C(=O)O)c(N2CCC(C)(C)CC2)c1-c1ccc(CN2CCc3ccccc3C2)cc1` [Example 53, (S)-2-(tert-Butoxy)-2-(5-(4-((3,4-dihydroisoquinolin-2(1H)-yl)methyl)phenyl)-4-(4,4-dimethylpiperidin-1-yl)-2,6-dimethylpyridin-3-yl)acetic acid]: under 0.1 µM; `Cc1nc(C)c([C@H](OC(C)(C)C)C(=O)O)c(N2CCC(C)(C)CC2)c1-c1ccc(CNCc2ccccc2)cc1` [Example 14, (S)-2-(5-(4-((benzylamino)methyl)phenyl)-4-(4,4-dimethylpiperidin-1-yl)-2,6-dimethylpyridin-3-yl)-2-(tert-butoxy)acetic acid]: under 0.1 µM; `Cc1nc(C)c([C@H](OC(C)(C)C)C(=O)O)c(N2CCC(C)(C)CC2)c1-c1ccc(CN(Cc2ccc(F)cc2)S(C)(=O)=O)cc1` [Example 34, (S)-2-(tert-butoxy)-2-(4-(4,4-dimethylpiperidin-1-yl)-5-(4-((N-(4-fluorobenzyl)methylsulfonamido)methyl)phenyl)-2,6-dimethylpyridin-3-yl)acetic acid]: under 0.1 µM.
Still for that read-out and setting: for `Cc1ccccc1C(=O)N(Cc1ccc(F)cc1)Cc1ccc(-c2c(C)nc(C)c([C@H](OC(C)(C)C)C(=O)O)c2N2CCC(C)(C)CC2)cc1` [Example 43, (S)-2-(tert-butoxy)-2-(4-(4,4-dimethylpiperidin-1-yl)-5-(4-((N-(4-fluorobenzyl)-2-methylbenzamido)methyl)phenyl)-2,6-dimethylpyridin-3-yl)acetic acid] the value was under 0.1 µM; for `Cc1nc(C)c([C@H](OC(C)(C)C)C(=O)O)c(N2CCC(C)(C)CC2)c1-c1ccc(CN(Cc2ccc(F)cc2)C(=O)c2cccs2)cc1` [Example 44, (S)-2-(tert-butoxy)-2-(4-(4,4-dimethylpiperidin-1-yl)-5-(4-((N-(4-fluorobenzyl)thiophene-2-carboxamido)methyl)phenyl)-2,6-dimethylpyridin-3-yl)acetic acid], under 0.1 µM; for `Cc1nc(C)c([C@H](OC(C)(C)C)C(=O)O)c(N2CCC(C)(C)CC2)c1-c1ccc(COc2cccc(C(F)(F)F)c2)cc1` [Example 48, (S)-2-(tert-Butoxy)-2-(4-(4,4-dimethylpiperidin-1-yl)-2,6-dimethyl-5-(4-((3-(trifluoromethyl)phenoxy)methyl)phenyl)pyridin-3-yl)acetic acid], under 0.1 µM.
As to `Cc1cc(OCc2ccc(-c3c(C)nc(C)c([C@H](OC(C)(C)C)C(=O)O)c3N3CCC(C)(C)CC3)cc2)ccc1Cl` [Example 50, (S)-2-(tert-Butoxy)-2-(5-(4-((4-chloro-3-methylphenoxy)methyl)phenyl)-4-(4,4-dimethylpiperidin-1-yl)-2,6-dimethylpyridin-3-yl)acetic acid], the EC50 was under 0.1 µM.
The same measure, in the same setting: next, `COc1cccc(C(=O)N(Cc2ccc(F)cc2)Cc2ccc(-c3c(C)nc(C)c([C@H](OC(C)(C)C)C(=O)O)c3N3CCC(C)(C)CC3)cc2)c1` [Example 37, (S)-2-(tert-butoxy)-2-(4-(4,4-dimethylpiperidin-1-yl)-5-(4-((N-(4-fluorobenzyl)-3-methoxybenzamido)methyl)phenyl)-2,6-dimethylpyridin-3-yl)acetic acid]: under 0.1 µM; `Cc1nc(C)c([C@H](OC(C)(C)C)C(=O)O)c(N2CCC(C)(C)CC2)c1-c1ccc(CN(Cc2ccc(F)cc2)C(=O)c2ccc(C(F)(F)F)cc2)cc1` [Example 46, (S)-2-(tert-butoxy)-2-(4-(4,4-dimethylpiperidin-1-yl)-5-(4-((N-(4-fluorobenzyl)-4-(trifluoromethyl)benzamido)methyl)phenyl)-2,6-dimethylpyridin-3-yl)acetic acid]: under 0.1 µM.
Consider `Cc1nc(C)c([C@H](OC(C)(C)C)C(=O)O)c(N2CCC(C)(C)CC2)c1-c1ccc(CNCCC2CCCCC2)cc1` [Example 13, (S)-2-(tert-butoxy)-2-(5-(4-(((2-cyclohexylethyl)amino)methyl)phenyl)-4-(4,4-dimethylpiperidin-1-yl)-2,6-dimethylpyridin-3-yl)acetic acid], for which the EC50 lay within 0.1 to 1 µM.
Turning to `Cc1nc(C)c([C@H](OC(C)(C)C)C(=O)O)c(N2CCC(C)(C)CC2)c1-c1ccc(CN2CCOCC2)cc1` [Example 2, (S)-2-(tert-Butoxy)-2-(4-(4,4-dimethylpiperidin-1-yl)-2,6-dimethyl-5-(4-(morpholinomethyl)phenyl)pyridin-3-yl)acetic acid], the EC50 lay within 0.1 to 1 µM.
Take `Cc1nc(C)c([C@H](OC(C)(C)C)C(=O)O)c(N2CCC(C)(C)CC2)c1-c1ccc(CN(Cc2ccc(F)cc2)C(=O)OCc2ccccc2)cc1` [Example 31, (S)-2-(5-(4-((((benzyloxy)carbonyl)(4-fluorobenzyl)amino)methyl)phenyl)-4-(4,4-dimethylpiperidin-1-yl)-2,6-dimethylpyridin-3-yl)-2-(tert-butoxy)acetic acid]: the EC50 is under 0.1 µM.
Still for that read-out and setting: for `Cc1nc(C)c([C@H](OC(C)(C)C)C(=O)O)c(N2CCC(C)(C)CC2)c1-c1ccc(CN(Cc2ccc(F)cc2)C(=O)C2CCC2)cc1` [Example 42, (S)-2-(tert-butoxy)-2-(4-(4,4-dimethylpiperidin-1-yl)-5-(4-((N-(4-fluorobenzyl)cyclobutanecarboxamido)methyl)phenyl)-2,6-dimethylpyridin-3-yl)acetic acid] the value was under 0.1 µM; for `Cc1nc(C)c([C@H](OC(C)(C)C)C(=O)O)c(N2CCC(C)(C)CC2)c1-c1ccc(CN(Cc2ccc(F)cc2)C(=O)c2ccccc2)cc1` [Example 21, (S)-2-(tert-butoxy)-2-(4-(4,4-dimethylpiperidin-1-yl)-5-(4-((N-(4-fluorobenzyl)benamido)methyl)phenyl)-2,6-dimethylpyridin-3-yl)acetic acid], under 0.1 µM.
`Cc1nc(C)c([C@H](OC(C)(C)C)C(=O)O)c(N2CCC(C)(C)CC2)c1-c1ccc(CN(Cc2ccc(F)cc2)C(=O)C2CC2)cc1` [Example 40, (S)-2-(tert-butoxy)-2-(4-(4,4-dimethylpiperidin-1-yl)-5-(4-((N-(4-fluorobenzyl)cyclopropanecarboxamido)methyl)phenyl)-2,6-dimethylpyridin-3-yl)acetic acid]: the EC50 is under 0.1 µM.
As for `Cc1nc(C)c([C@H](OC(C)(C)C)C(=O)O)c(N2CCC(C)(C)CC2)c1-c1ccc(CN(Cc2ccc(F)cc2)C(=O)COc2ccccc2)cc1` [Example 30, (S)-2-(tert-butoxy)-2-(4-(4,4-dimethylpiperidin-1-yl)-5-(4-((N-(4-fluorobenzyl)-2-phenoxyacetamido)methyl)phenyl)-2,6-dimethylpyridin-3-yl)acetic acid], the EC50 was 0.1 to 1 µM.

Staying with this assay, now noted: MT2, 120 h, read-out: EC50 μM.
For `Cc1nc(C)c([C@H](OC(C)(C)C)C(=O)O)c(N2CCC(C)(C)CC2)c1-c1ccc(CN2CCc3ccccc3C2)cc1` [Example 53, (S)-2-(tert-Butoxy)-2-(5-(4-((3,4-dihydroisoquinolin-2(1H)-yl)methyl)phenyl)-4-(4,4-dimethylpiperidin-1-yl)-2,6-dimethylpyridin-3-yl)acetic acid], the EC50 was 0.076 µM.
As for `Cc1nc(C)c([C@H](OC(C)(C)C)C(=O)O)c(N2CCC(C)(C)CC2)c1-c1ccc(CN(Cc2ccc(F)cc2)C(=O)c2ccc(C(F)(F)F)cc2)cc1` [Example 46, (S)-2-(tert-butoxy)-2-(4-(4,4-dimethylpiperidin-1-yl)-5-(4-((N-(4-fluorobenzyl)-4-(trifluoromethyl)benzamido)methyl)phenyl)-2,6-dimethylpyridin-3-yl)acetic acid], the EC50 stood at 0.016 µM.
Turning to `Cc1nc(C)c([C@H](OC(C)(C)C)C(=O)O)c(N2CCC(C)(C)CC2)c1-c1ccc(CN2CCOCC2)cc1` [Example 2, (S)-2-(tert-Butoxy)-2-(4-(4,4-dimethylpiperidin-1-yl)-2,6-dimethyl-5-(4-(morpholinomethyl)phenyl)pyridin-3-yl)acetic acid], the EC50 amounted to 0.113 µM.
On to `Cc1nc(C)c([C@H](OC(C)(C)C)C(=O)O)c(N2CCC(C)(C)CC2)c1-c1ccc(CN(Cc2ccc(F)cc2)C(=O)COc2ccccc2)cc1` [Example 30, (S)-2-(tert-butoxy)-2-(4-(4,4-dimethylpiperidin-1-yl)-5-(4-((N-(4-fluorobenzyl)-2-phenoxyacetamido)methyl)phenyl)-2,6-dimethylpyridin-3-yl)acetic acid], for which the EC50 was determined as 0.118 µM.

These data come from patent US20180170903A1, “PYRIDIN-3-YL ACETIC ACID DERIVATIVES AS INHIBITORS OF HUMAN IMMUNODEFICIENCY VIRUS REPLICATION” (ViiV HEALTHCARE UK (NO.5) LIMITED, priority 2015, published 2018).
